# In paper PMC9238271, “The quorum sensing peptide EntF* promotes colorectal cancer metastasis in mice: a new factor in the host-microbiome interaction” (BMC Biology, 2022):
# “Also recorded” adds a separate entry of the source.
# Experiments:
# [1] = EntF* in serum of untreated mice, RP-UPLC-TQ-MS (LC1-MS1); assay type: in vivo, C57BL/6 mice; settings: for EntF* concentration (pM) LC1-MS1: mouse serum, LOQ = 100 pM, below: set at 0
# Experimental: After a 30 min incubation on ice, blood was centrifuged at 1000g for 10 min at room temperature. The supernatant (serum) was then transferred to fresh tubes and stored at − 35 °C until use.
# Fifty microliters of serum were mixed with 150 μL 0.5% formic acid in acetonitrile. After sonication for 5 min, samples were vortexed for 5 s, then heated for 30 s at 100 °C. The solution was vortexed and centrifuged for 20 min at 20,000g at 4 °C. The supernatant was purified using solid phase extraction (SPE) on HyperSep C18 plates (Thermo Fisher Scientific, Belgium), previously conditioned with acetonitrile and equilibrated with 75% acetonitrile in water, containing 0.375% formic acid. After loading 150 μL of each sample, 120 μL eluent were collected and organic solvents evaporated using nitrogen (1 L/min) for 5 min. The resulting samples were further diluted with 30 μL of BSA-based anti-adsorption solution, and analyzed by LC-MS.
# EntF* was detected and quantified on a Waters Acquity® UPLC H-class system, connected to a Waters Xevo™ TQ-S triple quadrupole mass spectrometer with electrospray ionization (operated in positive ionization mode). Autosampler tray and column oven were kept at 10 ± 5 °C and 60 ± 5 °C, respectively. Chromatographic separation was achieved on a Waters Acquity® UPLC BEH Peptide C18 column (300 Å, 1.7 μm, 2.1 mm × 100 mm). The mobile phases consisted of 93/2/5 water/acetonitrile/DMSO (V/V/V) containing 0.1% formic acid (mobile phase A) and 2/93/5 water/acetonitrile/DMSO (V/V/V) containing 0.1% formic acid (mobile phase B), and the flow rate was set to 0.5 mL/min. A 10-μL aliquot from each sample was injected. The gradient program started with 80% of mobile phase A for 1 min, followed by a linear gradient to 40% of mobile phase A for 3.5 min. Gradient was then changed to 14.2% mobile phase A at 5 min, followed by a 1 min equilibration, before starting conditions were applied. EntF* retention time was between 4.25 and 4.45 min.
# An optimized capillary voltage of 3.00 kV, a cone voltage of 20.00 V, and a source offset of 50.0 V were used. Acquisition was done in the MRM mode. The selected precursor ion for EntF* was m/z 865.7 with two selected product ions at m/z 202.08 (36 eV, b2 fragment) as quantifier and m/z 315.17 (31 eV, b3 fragment) as qualifier.
# A sample was considered positive for the presence of EntF* when the following criteria were met: correct retention time, quantifier/qualifier peak area ratio between 2.0 and 4.0, both quantifier and qualifier peaks with a signal-to-noise ratio > 3.0, and a peptide concentration > 100 pM.
# [2] = test system: luciferase-transfected HCT-8/E11 cells injected into the cecal wall; test: Orthotopic mouse model of colorectal cancer: weekly bioluminescent imaging; assay type: in vivo, female athymic nude mice (Swiss nu/nu)
# Experimental: All in vivo experiments were performed according to the Ethical Committee principles of laboratory animal welfare, approved by our institute (Ghent University, Faculty of Medicine and Health Sciences, approval number ECD 17-90). Mice were maintained in a sterile environment under controlled conditions (light–dark cycle with light from 7:00 h to 17:00 h, temperature 21–25 °C and humidity 45–65%). Before the experiment, mice were allowed to acclimate to the abovementioned conditions for a minimum of 7 days.
# Six-week-old female athymic nude mice (Swiss nu/nu) were anesthetized, and a minimally invasive midline laparotomy was performed to localize the cecum. The cecum was then gently pulled out, and luciferase-transfected HCT-8/E11 cells (1 × 10^6 cells) in 20 μL serum-free DMEM medium with Matrigel (1:1) were injected into the cecal wall. Before implantation, cells were treated with EntF* (10^2 nM), Phr0662 (10^2 nM), vehicle (PBS), or TGFα positive control (0.1 μg mL^−1) solutions for 5 days. The cecum was then carefully placed back into the abdominal cavity and the surgical incision was closed with two layers of sutures with PDS 6-0. […] Once a week, mice were examined for tumor growth and metastases using bioluminescent imaging with the IVIS Lumina II (Perkin Elmer, Belgium) after i.p. injection with 200 μL luciferin (150 mg kg^−1). After 6 weeks, mice were euthanized using cervical dislocation, and the liver, diaphragm, lungs, cecum, duodenum, and peritoneum were macroscopically examined for the presence of tumor nodules. Liver and lung tissues were then fixed in formalin for 24 h and stored in 70% ethanol for maximum 3 days before embedding in paraffin. Next, a hematoxylin and eosin (H&E) staining was performed on 8 μm sections, and 3 sections per mouse were visualized using microscopy. Slides from tumor-bearing mice were analyzed by two blinded, independent investigators using the scoring system described in Additional file 5: Table S3. In case of differences, slides were scored by a third blinded, independent investigator for consensus.
# The Kolmogorov-Smirnov test was used to assess if data obtained were normally distributed. For sample size n < 10, non-parametric tests (Mann-Whitney U test) were performed directly. Slope comparison was based on linear regression analysis. Bootstrapped medians and Hedges G-values were used to calculate the effect size when sample sizes were different between the groups.
compound,measurement,setting,value
"CC(C)C[C@@H]1NC(=O)[C@H](CO)NC(=O)[C@H](Cc2ccccc2)NC(=O)[C@H](C(C)C)NC(=O)[C@@H](NC(=O)[C@H](CCC(=O)O)NC(=O)[C@@H](NC(=O)[C@H](CC(C)C)NC(=O)[C@H](CC(N)=O)NC(=O)[C@@H](N)CO)C(C)C)CSSC[C@@H](C(=O)N[C@@H](CC(N)=O)C(=O)O)NC(=O)[C@H](CCCCN)NC(=O)[C@H](CCCCN)NC(=O)[C@H](Cc2ccccc2)NC1=O (single isomer, unassigned) [EntF*]","in vivo exposure, average",[1]; All mice average (<LoD => 0),0.019 nM
same,"in vivo exposure, Exposure","[1]; All mice average (<LoD => 0), time 1440 min",27.5 nM·min
same,"Concentration (pM), average","[1]; Natural in vivo exposure, average of all samples, < LOD: set at 0 pM",19.1243 pM
same,Concentration (pM),"[1]; Natural in vivo exposure, sample 10809_069_205",107.331 pM
same,Concentration (pM),"[1]; Natural in vivo exposure, sample 10809_069_269",431.362 pM
same,Concentration (pM),"[1]; Natural in vivo exposure, sample 10809_069_276",567.385 pM
same,Concentration (pM),"[1]; Natural in vivo exposure, sample 10809_069_296",136.998 pM
same,"EntF* concentration in mouse serum, Average (pM), All","[1]; all samples (n=35), samples < LOQ counted as zero",328.6 pM
same,amount of EntF* detected in the serum of positive mice,"[1]; endogenous level, six of 35 untreated C57BL/6 mice, LOQ 100 pM, LC1-MS1",above 100 pM
same,EntF* concentration (pM) LC1-MS1,[1]; sample 20181011S4,389 pM
same,EntF* concentration (pM) LC1-MS1,[1]; sample 20181011S7,2146 pM
same,EntF* concentration (pM) LC1-MS1,[1]; sample 20181011S9,3127 pM
same,EntF* concentration (pM) LC1-MS1,[1]; sample 20181011S12,2489 pM
same,EntF* concentration (pM) LC1-MS1,[1]; sample 20181011S16,3148 pM
same,EntF* concentration (pM) LC1-MS1,[1]; sample 20181011S18,200 pM
same,"effect size class by Hedges' G, bioluminescence","[2]; after a 6-week treatment, compared to the placebo group",medium to large effect
same,effect size: increase in bioluminescence compared to the placebo,"[2]; after a 6-week treatment, bootstrapped median",79%
same,luciferase activity / tumor growth compared to the vehicle,"[2]; daily i.p. over 6 weeks, linear regression slope comparison",statistically significant increase; also recorded: significant increase in tumor growth
